From PubChem BioAssay AID2060600 (Molecular Pharmacology Branch, DTP, NCI, 2025)
“And” between values parts separate entries of the source, which are not always exact repeats. Equal entries are not always repeated. One block for each compound: values may come before it.

System: 996289-038-R-J1-PDC complex spheroid viability
Assay: Anticancer human tumor 996289-038-R-J1-PDC patient-derived colon adenocarcinoma cell line growth inhibition [CLK]
Settings: for viability, T/C: stronger effect = lower value
In short: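 Patient-derived tumor cells grown as complex spheroids with HUVEC endothelial cells and mesenchymal stem cells, treated with drug combinations. Concentrations descend in half-log steps from near clinical Cmax, or from 10 microM if Cmax unknown.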

[1] = curve of first compound, second compound 0.0316 µM
[2] = curve of first compound, second compound 0.1 µM
[3] = curve of first compound, second compound 0.316 µM
[4] = curve of first compound, second compound 1 µM
[5] = curve of first compound, second compound 3.16 µM
[6] = curve of first compound, second compound 10 µM
[7] = second compound 0.0316 µM, first compound 0.0316 µM
[8] = second compound 0.0316 µM, first compound 0.1 µM
[9] = second compound 0.0316 µM, first compound 0.316 µM
[10] = second compound 0.0316 µM, first compound 1 µM
[11] = second compound 0.1 µM, first compound 0.0316 µM
[12] = second compound 0.1 µM, first compound 0.1 µM
[13] = second compound 0.1 µM, first compound 0.316 µM
[14] = second compound 0.1 µM, first compound 1 µM
[15] = second compound 0.316 µM, first compound 0.0316 µM
[16] = second compound 0.316 µM, first compound 0.1 µM
[17] = second compound 0.316 µM, first compound 0.316 µM
[18] = second compound 0.316 µM, first compound 1 µM
[19] = second compound 1 µM, first compound 0.0316 µM
[20] = second compound 1 µM, first compound 0.1 µM
[21] = second compound 1 µM, first compound 0.316 µM
[22] = second compound 1 µM, first compound 1 µM
[23] = second compound 3.16 µM, first compound 0.0316 µM
[24] = second compound 3.16 µM, first compound 0.1 µM
[25] = second compound 3.16 µM, first compound 0.316 µM
[26] = second compound 3.16 µM, first compound 1 µM
[27] = second compound 10 µM, first compound 0.0316 µM
[28] = second compound 10 µM, first compound 0.1 µM
[29] = second compound 10 µM, first compound 0.316 µM
[30] = second compound 10 µM, first compound 1 µM
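Note: spheroids exposed to the agents for 7 days before readout.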

IC50 [1]: > 1000 nM
IC50 [2]: > 1000 nM
IC50 [3]: > 1000 nM
IC50 [4]: > 1000 nM
IC50 [5]: > 1000 nM
IC50 [6]: > 1000 nM
SMILES: CCN1CCN(Cc2ccc(Nc3ncc(F)c(-c4cc(F)c5nc(C)n(C(C)C)c5c4)n3)nc2)CC1 + CNC(=O)c1ccc(Nc2nc(OC3CCCC3)c3c(-c4ccc5nc(C)oc5c4)c[nH]c3n2)c(OC)c1
viability, T/C (second compound 0.0316 µM, first compound 0.00316 µM): 109%
viability, T/C (second compound 0.0316 µM, first compound 0.01 µM): 103%
viability, T/C [7]: 106%
viability, T/C [8]: 97.6%
viability, T/C [9]: 92.6%
viability, T/C [10]: 96.2%
viability, T/C (second compound 0.1 µM, first compound 0.00316 µM): 115%
viability, T/C (second compound 0.1 µM, first compound 0.01 µM): 111%
viability, T/C [11]: 108%
viability, T/C [12]: 91.8%
viability, T/C [13]: 86.5%
viability, T/C [14]: 86.7%
viability, T/C (second compound 0.316 µM, first compound 0.00316 µM): 79%
viability, T/C (second compound 0.316 µM, first compound 0.01 µM): 81.2%
viability, T/C [15]: 80.8%
viability, T/C [16]: 75%
viability, T/C [17]: 82.8%
viability, T/C [18]: 76.8%
viability, T/C (second compound 1 µM, first compound 0.00316 µM): 72.6%
viability, T/C (second compound 1 µM, first compound 0.01 µM): 70.2%
viability, T/C [19]: 64.2%
viability, T/C [20]: 66.9%
viability, T/C [21]: 64.8%
viability, T/C [22]: 77.1%
viability, T/C (second compound 3.16 µM, first compound 0.00316 µM): 62.5%
viability, T/C (second compound 3.16 µM, first compound 0.01 µM): 62.1%
viability, T/C [23]: 61.9%
viability, T/C [24]: 64.9%
viability, T/C [25]: 73.2%
viability, T/C [26]: 65.9%
viability, T/C (second compound 10 µM, first compound 0.00316 µM): 66%
viability, T/C (second compound 10 µM, first compound 0.01 µM): 63.9%
viability, T/C [27]: 61.3%
viability, T/C [28]: 62.2%
viability, T/C [29]: 68.1%
viability, T/C [30]: 59.8%

IC50 (curve of compound): 8200 nM and 9040 nM
SMILES: CC1(C)CCC(CN2CCN(c3ccc(C(=O)NS(=O)(=O)c4ccc(NCC5CCOCC5)c([N+](=O)[O-])c4)c(Oc4cnc5[nH]ccc5c4)c3)CC2)=C(c2ccc(Cl)cc2)C1
viability, T/C (compound 0.0316 µM): 108% and 106%
viability, T/C (compound 0.1 µM): 94.2% and 83.6%
viability, T/C (compound 0.316 µM): 101% and 109%
viability, T/C (compound 1 µM): 109% and 100%
viability, T/C (compound 3.16 µM): 118% and 121%
viability, T/C (compound 10 µM): 38.2% and 44.7%

IC50 (curve of compound): > 100 nM
SMILES: Cn1ncnc1[C@H]1c2n[nH]c(=O)c3cc(F)cc(c23)N[C@@H]1c1ccc(F)cc1
viability, T/C (compound 0.000316 µM): 98% and 109%
viability, T/C (compound 0.001 µM): 90.6% and 97.8%
viability, T/C (compound 0.00316 µM): 107% and 108%
viability, T/C (compound 0.01 µM): 103% and 105%
viability, T/C (compound 0.0316 µM): 99% and 117%
viability, T/C (compound 0.1 µM): 85.3% and 95.5%

IC50 [1]: > 10000 nM
IC50 [2]: > 10000 nM
IC50 [3]: 5720 nM
IC50 [4]: 2470 nM
IC50 [5]: 1410 nM
IC50 [6]: 1130 nM
SMILES: COc1ccc([C@@H](O)c2cc(-c3ncnc4cc(N5CCOCC5)ccc34)c(F)cc2Cl)nn1 + CNC(=O)c1ccc(Nc2nc(OC3CCCC3)c3c(-c4ccc5nc(C)oc5c4)c[nH]c3n2)c(OC)c1
viability, T/C [7]: 117%
viability, T/C [8]: 117%
viability, T/C [9]: 101%
viability, T/C [10]: 102%
viability, T/C (second compound 0.0316 µM, first compound 3.16 µM): 75.4%
viability, T/C (second compound 0.0316 µM, first compound 10 µM): 54.7%
viability, T/C [11]: 121%
viability, T/C [12]: 112%
viability, T/C [13]: 99.1%
viability, T/C [14]: 101%
viability, T/C (second compound 0.1 µM, first compound 3.16 µM): 86.8%
viability, T/C (second compound 0.1 µM, first compound 10 µM): 52.7%
viability, T/C [15]: 82.3%
viability, T/C [16]: 73.9%
viability, T/C [17]: 68.9%
viability, T/C [18]: 62.5%
viability, T/C (second compound 0.316 µM, first compound 3.16 µM): 66%
viability, T/C (second compound 0.316 µM, first compound 10 µM): 39.3%
viability, T/C [19]: 67.8%
viability, T/C [20]: 58.5%
viability, T/C [21]: 58.4%
viability, T/C [22]: 55.7%
viability, T/C (second compound 1 µM, first compound 3.16 µM): 50.6%
viability, T/C (second compound 1 µM, first compound 10 µM): 26.9%
viability, T/C [23]: 56.2%
viability, T/C [24]: 59.4%
viability, T/C [25]: 51.9%
viability, T/C [26]: 52%
viability, T/C (second compound 3.16 µM, first compound 3.16 µM): 45.7%
viability, T/C (second compound 3.16 µM, first compound 10 µM): 25.9%
viability, T/C [27]: 56%
viability, T/C [28]: 57%
viability, T/C [29]: 52.3%
viability, T/C [30]: 50.2%
viability, T/C (second compound 10 µM, first compound 3.16 µM): 44.1%
viability, T/C (second compound 10 µM, first compound 10 µM): 27.2%
